From patent US20220183282A1, “Fatty Acid Derivatives For Improving The Effect Of Agrochemical Actives” (priority 2019, published 2022)

Assays:
apple leaf cuticles [1] = assay: Penetration of Mesosulfuron-methyl through isolated apple leaf cuticles in the presence of test substances; format: in vitro ADME; conditions: for Mean penetration for Mesosulfuron-methyl after time: Mesosulfuron-methyl 0.1 g/L in spray liquid, 10° C./61% rel. air humidity
Description: (§1) Surfactants can affect the absorption of (active) ingredients through membranes such as skin, films or the plant cuticle. As a “finite-dose” application, it is known for the single administration or application of a solution, cream, gel etc. to a membrane that the absorption of active ingredient can be influenced by some additives such as surfactants even after wetting.
(§2) The principle of the method has been published and described in detail e.g. in WO-A-2005/194844 or WO2017211572 A1). The leaf cuticles were enzymatically isolated in the manner described in the literature from apple leaves of orchard trees in a commercial stone fruit growing facility near Frankfurt am Main in 2017. The stomata-free cuticles were first dried under air and then installed into stainless steel diffusion cells. After application to the original upper side of the leaf and evaporation of the test liquid, i.e. of the spray liquids of the active ingredients with or without the inventive substances or comparative compositions, the diffusion cells were transferred into thermostated blocks and charged with aqueous liquid. The water used to make up the aqueous test liquids was local tap water (of known composition). At regular intervals, aliquot samples were taken and the proportion of active ingredient penetrated was determined by HPLC or alternatively by radio-chemical method where radio-labelled active ingredient was used as tracer to determine the concentration. During the experiment, the temperature in the system (block, diffusion cells, liquids, etc.) and the air humidity above the spray deposit on the cuticle were controlled. […] The analytical determination by means of HPLC (1290 Infinity, Agilent) was effected thereafter with a Kinetex column 30×2, 1 mm, 2.6μ C18 100 A (Phenomenex), taking a 20 μL aliquot as injection volume at the specified times. In each case, the geometric mean values of the penetration for intact membranes at the mean measurement times are given.

apple leaf cuticles [2] = assay: Penetration of Milbemectin through isolated apple leaf cuticles in the presence of test substances; format: in vitro ADME; conditions: for Mean penetration for Milbemectin after time: Milbemectin 0.03 g/L in spray liquid
Description: as §1
(§3) The principle of the method has been published and described in detail e.g. in WO-A-2005/194844 or WO2017211572 A1). The leaf cuticles were enzymatically isolated in the manner described in the literature from apple leaves of orchard trees in a commercial stone fruit growing facility near Frankfurt am Main in 2017. The stomata-free cuticles were first dried under air and then installed into stainless steel diffusion cells. After application to the original upper side of the leaf and evaporation of the test liquid, i.e. of the spray liquids of the active ingredients with or without the inventive substances or comparative compositions, the diffusion cells were transferred into thermostated blocks and charged with aqueous liquid. The water used to make up the aqueous test liquids was local tap water (of known composition). At regular intervals, aliquot samples were taken and the proportion of active ingredient penetrated was determined by HPLC or alternatively by radio-chemical method where radio-labelled active ingredient was used as tracer to determine the concentration. During the experiment, the temperature in the system (block, diffusion cells, liquids, etc.) and the air humidity above the spray deposit on the cuticle were controlled. In the experiment, relative air humidity was constant throughout at 56% relative air humidity (air over supersaturated calcium nitrate) at a constant 10° C. or 25° C. The analytical determination by means of HPLC (1290 Infinity, Agilent) was effected thereafter with a Kinetex column 30×2, 1 mm, 2.6μ C18 100 A (Phenomenex), taking a 20 μL aliquot as injection volume at the specified times. In each case, the geometric mean values of the penetration for intact membranes at the mean measurement times are given.

apple leaf cuticles [3] = assay: Penetration of Imidacloprid through isolated apple leaf cuticles in the presence of test substances; conditions: for Mean penetration for Imidacloprid after time: Imidacloprid 0.5 g/L in spray liquid
Description: as §1, §3

apple leaf cuticles [4] = assay: Penetration of lodosulfuron-methyl through isolated apple leaf cuticles in the presence of test substances; format: in vitro ADME; conditions: for Mean penetration for lodosulfuron-methyl after time: lodosulfuron-methyl 0.1 g/L in spray liquid, 10° C./61% rel. air humidity
Description: as §1, §2

apple leaf cuticles [5] = assay: Penetration of Flufenacet through isolated apple leaf cuticles in the presence of test substances; conditions: for Mean penetration for Flufenacet after time: Flufenacet 0.75 g/L in spray liquid, 10° C./61% rel. air humidity
Description: as §1, §2

[6] = Dynamic surface tension, bubble pressure method (BP2100 tensiometer, Krüss); format: physicochemical
Experimental: Dynamic surface tension was determined via the bubble pressure method (BP2100 tensiometer, Krüss). Given a timespan of relevance for the spray application of agrochemicals in aqueous dilution (called the surface age in the bubble pressure method) of 200 milliseconds (ms), the value for dynamic surface tension in [mN/m] correlates with the adhesion on plants that are difficult to wet, such as barley (cereal). A value of 50 mN/m (at 20-21° C.) with respect to water (72.8 mN/m) results in an improvement in the adhesion from “zero adhesion” (0%) to about 50% (Baur P., Pontzen R.; 2007; Basic features of plant surface wettability and deposit formation and the impact of adjuvant; in R. E. Gaskin ed. Proceedings of the 8th International Symposium on Adjuvants for Agrochemicals; Publisher: International Society for Agrochemical Adjuvants (ISAA), Columbus, Ohio, USA).

apple leaf cuticles [7] = assay: Penetration of Mesotrione through isolated apple leaf cuticles in the presence of test substances
Description: as §1
as §3, with “In each case, the geometric mean values of the penetration for intact membranes at the mean measurement times are given.” left out

## CCCCCCCCC(=O)OCCOCCOCCOCCOCCOCCOC [A1, Pelargonic acid 6 EO ester methyl ether]
Apple leaf cuticles [1]; test substance 1.0 g/L, 1 day
  Mean penetration for Mesosulfuron-methyl after time: 1.9%
Apple leaf cuticles [1]; test substance 1.0 g/L, 2 days
  Mean penetration for Mesosulfuron-methyl after time: 3.6%
Apple leaf cuticles [1]; test substance 3.0 g/L, 1 day
  Mean penetration for Mesosulfuron-methyl after time: 4.2%
Apple leaf cuticles [1]; test substance 3.0 g/L, 2 days
  Mean penetration for Mesosulfuron-methyl after time: 5.2%
Apple leaf cuticles [1]; test substance 10 g/L, 1 day
  Mean penetration for Mesosulfuron-methyl after time: 9.2%
Apple leaf cuticles [1]; test substance 10 g/L, 2 days
  Mean penetration for Mesosulfuron-methyl after time: 10.9%
Apple leaf cuticles [1]; summary of Table 5
  uptake of the active ingredient (Mesosulfuron-methyl), in words: strongly increases the uptake
Apple leaf cuticles [2]; test substance 1.5 g/L, 1 day
  Mean penetration for Milbemectin after time: 4.3%
Apple leaf cuticles [2]; test substance 1.5 g/L, 2 days
  Mean penetration for Milbemectin after time: 4.2%
Apple leaf cuticles [2]; test substance 3.0 g/L, 1 day
  Mean penetration for Milbemectin after time: 4.7%
Apple leaf cuticles [2]; test substance 3.0 g/L, 2 days
  Mean penetration for Milbemectin after time: 5.4%
Apple leaf cuticles [2]; summary of Table 9, compared to the commercial formulation
  uptake of the agrochemical active (Milbemectin), in words: strongly increases the uptake
Apple leaf cuticles [3]; test substance 0.3 g/L, 1 day
  Mean penetration for Imidacloprid after time: 2.8%
Apple leaf cuticles [3]; test substance 0.3 g/L, 4 days
  Mean penetration for Imidacloprid after time: 3.8%
Apple leaf cuticles [3]; test substance 1.0 g/L, 1 day
  Mean penetration for Imidacloprid after time: 31.7%
Apple leaf cuticles [3]; test substance 1.0 g/L, 4 days
  Mean penetration for Imidacloprid after time: 38.2%
Apple leaf cuticles [3]; summary of Table 8
  uptake of the agrochemical active (Imidacloprid), in words: strongly increases the uptake
Apple leaf cuticles [4]; test substance 0.3 g/L, 1 day
  Mean penetration for lodosulfuron-methyl after time: 1.0%
Apple leaf cuticles [4]; test substance 0.3 g/L, 2 days
  Mean penetration for lodosulfuron-methyl after time: 1.5%
Apple leaf cuticles [4]; test substance 1.0 g/L, 1 day
  Mean penetration for lodosulfuron-methyl after time: 2.3%
Apple leaf cuticles [4]; test substance 1.0 g/L, 2 days
  Mean penetration for lodosulfuron-methyl after time: 3.3%
Apple leaf cuticles [4]; test substance 3.0 g/L, 1 day
  Mean penetration for lodosulfuron-methyl after time: 7.6%
Apple leaf cuticles [4]; test substance 3.0 g/L, 2 days
  Mean penetration for lodosulfuron-methyl after time: 8.8%
Apple leaf cuticles [4]; summary of Table 6
  uptake of the active ingredient (lodosulfuron-methyl), in words: strongly increases the uptake
Apple leaf cuticles [5]; test substance 1.0 g/L, 1 day
  Mean penetration for Flufenacet after time: 10.7%
Apple leaf cuticles [5]; test substance 1.0 g/L, 2 days
  Mean penetration for Flufenacet after time: 16.9%
Apple leaf cuticles [5]; test substance 10 g/L, 1 day
  Mean penetration for Flufenacet after time: 18.2%
Apple leaf cuticles [5]; test substance 10 g/L, 2 days
  Mean penetration for Flufenacet after time: 28.0%
Apple leaf cuticles [5]; summary of Table 4, compared to the commercial formulation
  uptake of the active ingredient (Flufenacet), in words: strongly increases the uptake
[6]; 0.3 g/L, 20 ms
  Dynamic Surface tension: 61.2 mN/m
[6]; 0.3 g/L, 50 ms
  Dynamic Surface tension: 57.3 mN/m
[6]; 0.3 g/L, 100 ms
  Dynamic Surface tension: 54.4 mN/m
[6]; 0.3 g/L, 200 ms
  Dynamic Surface tension: 51.5 mN/m
[6]; 1 g/L, 20 ms
  Dynamic Surface tension: 47.6 mN/m
[6]; 1 g/L, 50 ms
  Dynamic Surface tension: 44.5 mN/m
[6]; 1 g/L, 100 ms
  Dynamic Surface tension: 42.1 mN/m
[6]; 1 g/L, 200 ms
  Dynamic Surface tension: 39.8 mN/m
[6]; 3 g/L, 20 ms
  Dynamic Surface tension: 33.7 mN/m
[6]; 3 g/L, 50 ms
  Dynamic Surface tension: 32.0 mN/m
[6]; 3 g/L, 100 ms
  Dynamic Surface tension: 30.8 mN/m
[6]; 3 g/L, 200 ms
  Dynamic Surface tension: 29.5 mN/m
[6]; 10 g/L, 20 ms
  Dynamic Surface tension: 30.2 mN/m
[6]; 10 g/L, 50 ms
  Dynamic Surface tension: 29.3 mN/m
[6]; 10 g/L, 100 ms
  Dynamic Surface tension: 28.6 mN/m
[6]; 10 g/L, 200 ms
  Dynamic Surface tension: 27.9 mN/m
Apple leaf cuticles [7]
  uptake of the active ingredient (Mesotrione), in words: increases the uptake
